Target: Xanthine dehydrogenase/oxidase (Bos taurus, UniProt P80457)
Assay: Inhibition Assay: Xanthine oxidase (from bovine milk, Sigma) was prepared with phosphate-buffered saline (PBS) at 0.02 units/mL, and then the solution was added to 96 well plates at 50 μL/well. In addition, test compounds diluted with PBS were added at 50 μL/well. Xanthine (manufactured by Wako pure chemical) at 200 μM prepared with PBS was added at 100 μL/well, and the reaction was conducted for 10 minutes at room temperature. Absorbance at 290 nm was measured by using a microplate reader SpectraMax Plus 384 (manufactured by Molecular device).

Sequence of Xanthine dehydrogenase/oxidase (P80457 whole entry): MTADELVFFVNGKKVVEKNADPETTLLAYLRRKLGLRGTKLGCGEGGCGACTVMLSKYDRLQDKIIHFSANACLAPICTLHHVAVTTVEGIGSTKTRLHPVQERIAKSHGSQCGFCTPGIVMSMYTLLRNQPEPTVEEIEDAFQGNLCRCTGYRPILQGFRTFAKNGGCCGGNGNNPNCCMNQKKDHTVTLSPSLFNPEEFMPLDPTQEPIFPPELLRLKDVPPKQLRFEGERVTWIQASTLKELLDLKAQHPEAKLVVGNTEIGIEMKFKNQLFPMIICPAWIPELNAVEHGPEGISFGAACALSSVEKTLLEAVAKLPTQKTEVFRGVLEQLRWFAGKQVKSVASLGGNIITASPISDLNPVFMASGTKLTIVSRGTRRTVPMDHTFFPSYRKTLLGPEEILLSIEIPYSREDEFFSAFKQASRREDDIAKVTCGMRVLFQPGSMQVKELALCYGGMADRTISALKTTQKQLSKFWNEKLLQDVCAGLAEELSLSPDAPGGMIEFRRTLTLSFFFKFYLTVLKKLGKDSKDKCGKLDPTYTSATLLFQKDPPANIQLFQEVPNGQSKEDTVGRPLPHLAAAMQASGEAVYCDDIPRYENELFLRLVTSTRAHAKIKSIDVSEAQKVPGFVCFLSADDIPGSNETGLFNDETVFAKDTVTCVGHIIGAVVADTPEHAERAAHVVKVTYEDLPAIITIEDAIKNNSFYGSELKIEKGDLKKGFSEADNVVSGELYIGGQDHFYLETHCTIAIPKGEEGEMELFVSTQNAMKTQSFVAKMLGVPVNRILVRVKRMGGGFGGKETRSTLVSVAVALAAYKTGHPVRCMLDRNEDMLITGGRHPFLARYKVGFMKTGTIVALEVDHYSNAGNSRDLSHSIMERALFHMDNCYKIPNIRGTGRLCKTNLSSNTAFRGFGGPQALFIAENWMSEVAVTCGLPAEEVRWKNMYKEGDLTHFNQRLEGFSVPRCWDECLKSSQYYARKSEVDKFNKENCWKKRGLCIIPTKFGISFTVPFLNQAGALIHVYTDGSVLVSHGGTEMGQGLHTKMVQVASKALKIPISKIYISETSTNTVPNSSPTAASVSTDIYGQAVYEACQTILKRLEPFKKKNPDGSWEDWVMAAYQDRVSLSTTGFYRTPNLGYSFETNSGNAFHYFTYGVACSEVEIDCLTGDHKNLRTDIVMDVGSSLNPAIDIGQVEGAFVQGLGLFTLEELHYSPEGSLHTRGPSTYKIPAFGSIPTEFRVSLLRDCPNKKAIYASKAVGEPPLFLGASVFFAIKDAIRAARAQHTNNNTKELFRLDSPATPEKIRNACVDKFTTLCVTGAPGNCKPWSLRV

| Compound | IC50 [nM] |
| --- | --- |
| [C-]#[N+]c1cn(-c2ccc(C(=O)O)c(O)c2)c2cscc12 | 10 |
| [C-]#[N+]c1cn(-c2ccc(C(=O)O)c(O)c2)c2sc(Br)cc12 | 14 |
| [C-]#[N+]c1cn(-c2ccc(C(=O)O)c(O)c2)c2sccc12 | 13 |

— ChEMBL document CHEMBL3638714, “Fused heterocyclic derivative and pharmaceutical use thereof” (2015)
